System: complement activation
Assay: not given
Settings: fold activity relative to compstatin amidated at the C-terminus; based on published data and assays (WO2004/026328, WO2007044668, Mallik 2005; Katragadda 2006); cited from earlier work

Molecule	Activity over compstatin
Ac-ICV(1-Nal)QDWGAHRCT-COOH [Ac V4(1-Nal)/H9A —OH]	30 × more
Ac-ICV(2-IgI)QDWGAHRCT-CONH2 [Ac-V42IgI/H9A]	39 × more
Ac-ICV(2-IgI)QDWGAHRCT-COOH [Ac-V42IgI/H9A —OH]	37 × more
Ac-ICV(2-Nal)QDWGAHRCT-CONH2 [Ac-V4(2-Nal)/H9A]	99 × more
Ac-ICV(2-Nal)QDWGAHRCT-COOH [Ac V4(2-Nal)/H9A —OH]	38 × more
Ac-ICV(Bpa)QDWGAHRCT-CONH2 [Ac-V4(Bpa)/H9A]	86 × more
Ac-ICV(Bpa)QDWGAHRCT-COOH [Ac-V4(Bpa)/H9A —OH]	49 × more
Ac-ICVDhtQDWGAHRCT-COOH [Ac-V4Dht/H9A —OH]	5 × more
Ac-ICVVQDWGHHRCT-CONH2 [Ac-compstatin]	3 × more
Ac-ICVWQD(5fW)GAHRCT-CONH2 [Ac-V4W/W7(5fW)/H9A]	121 × more
Ac-ICVWQDWGAHRCT-CONH2 (Ac-ICVWQDWGAHRCT-NH2; cysteine pairing not given here) [Ac-V4W/H9A, compstatin analog]	45 × more
Ac-ICVWQDWGAHRCdT-COOH [Ac-V4W/H9A/T13dT —OH]	55 × more
Ac-ICVYQDWGAHRCT-CONH2 [Ac-V4Y/H9A]	14 × more
H-GICV(6fW)QD(6fW)GAHRCTN-COOH [+G/V4(6fW)/W7(6fW)H9A + N—OH]	126 × more

System: not listed separately
Assay: biological activity of enantiomers (assay not specified)
Settings: first eluting vs second eluting enantiomer

Molecule	biological activity, comparison of enantiomers
COc1cc(C)c2[nH]ccc2c1CN1CCN(CC(F)F)CC1c1ccc(C(=O)O)c(O)c1 (single isomer, unassigned) [Example 68, 4-(4-(2,2-difluoroethyl)-1-((5-methoxy-7-methyl-1H-indol-4-yl)methyl)piperazin-2-yl)-2-hydroxybenzoic acid]	more active enantiomer
